These results are taken from patent publication US7550511B2, “Compositions that bind antiterminator RNA and assay for screening for such compositions” (Ahio University, priority 2001, dated 2009).

The subject of the experiment is 9-(2-aminopurine)-RNA II versus 9-(2-aminopurine)-RNA IV (T-box antiterminator model RNAs). Kind of experiment: Fluorescence assay, relative fluorescence ratio (RNA binding selectivity) at 1 mM ligand. The note with it: (F-Fo) RNA II / (F-Fo) RNA IV; <1.0 preferential binding for RNA IV, >1.0 for RNA II.

Regarding `NC(Cc1ccccc1)C(O)CO` (stereo not shown) [Amino Alcohol 2, 3-amino-4-phenyl-butane-1,2-diol], the “relative fluorescence ratio (rounded)” value is 0.4.
